Test results from PubChem BioAssay (NCI).
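Assay format: 96-well plates, 48-hour exposure. At the GI50, growth is halved. TGI: total growth inhibition.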

Assays:
Test in all cases: NCI anticancer screen, dose series, 48 h
[1] = system: ACHN renal
[2] = system: HOP-92 NSCLC
[3] = system: LOX IMVI melanoma
[4] = system: M14 melanoma
[5] = system: SF-539 CNS
[6] = system: SK-OV-3 ovarian
[7] = system: UACC-257 melanoma
[8] = system: UACC-62 melanoma
[9] = system: MDA-MB-435

SMILES	TGI [1] [µM]	TGI [2] [µM]	TGI [3] [µM]	TGI [4] [µM]	TGI [5] [µM]	TGI [6] [µM]	TGI [7] [µM]	TGI [8] [µM]	GI50 [1] [µM]	GI50 [2] [µM]	GI50 [4] [µM]	GI50 [5] [µM]	GI50 [6] [µM]	GI50 [8] [µM]	TGI [9] [µM]	GI50 [3] [µM]	GI50 [9] [µM]	GI50 [7] [µM]
CSC(C1c2ccccc2N(c2ccc(C)cc2)C2=NC(=O)N(C)C(=O)C21Cl)S(=O)(=O)c1ccc(C)cc1 (centres undefined)	> 100	27.9	40.3	72.3	34.3	87.6	57.2	52	–	–	–	–	–	–	–	–	–	–
CCOC(=O)[C]1([Bi]([CH3])[CH3])N=NC(C(=O)OC)=C1C(=O)OC (centres undefined)	32.4	42.8	–	> 10	32.3	> 100	–	34.4	18	20.4	> 10	18.1	> 100	19.5	–	–	–	–
O=C(O)CNS(=O)(=O)c1ccc(NCc2ccccc2)cc1	> 100	> 100	> 100	> 100	> 100	> 100	> 100	> 100	–	–	–	–	–	–	–	–	–	–
COc1ccc(/C=C/c2nccc3ccccc23)cc1OC	> 10	> 10	> 10	> 10	> 10	> 10	> 10	> 10	–	–	–	–	–	–	> 10	–	–	–
CCOC(=O)C1=C(OC(OCC)C(CC)[Se]c2ccccc2)CCCC1 (centres undefined)	82.2	46	18.7	34.2	35.4	> 100	> 100	62.9	–	–	–	–	–	–	–	–	–	–
N#Cc1cc([N+](=O)[O-])ccc1NC(=O)C(=O)Nc1n[nH]c(N)n1	> 100	> 100	> 100	> 100	> 100	> 100	> 100	> 100	–	–	–	–	–	–	–	–	–	–
C/C(CC(=O)Nc1cc(Cl)c(Cl)cc1Cl)=N\NC(N)=O	–	> 100	> 100	> 100	> 100	> 100	> 100	> 100	–	–	–	–	–	–	–	–	–	–
COc1ccc(NC2=CC(=O)C(=O)c3ccccc32)nn1	5.1	–	4.14	0.668	2.2	9.41	3.24	3.01	–	–	–	–	–	–	1.32	–	–	–
Cc1cc2c(cc1C)[n+](=O)c(C(=O)C/C(=N/NC(=O)CC#N)C(=O)Nc1ccccc1C(F)(F)F)c(C)n2[O-]	> 100	–	> 100	> 100	> 100	> 100	> 100	> 100	–	–	–	–	–	–	–	–	–	–
O=C1CCC(=O)N2CCCCN12	> 100	> 100	> 100	> 100	> 100	> 100	> 100	> 100	–	–	–	–	–	–	–	–	–	–
Brc1cccc(C=NC23CC4CC(CC(C4)C2)C3)c1	> 100	> 100	> 100	> 100	> 100	> 100	> 100	> 100	–	–	–	–	–	–	–	–	–	–
COc1ccc(/C=C/CN(C)CCc2ccccc2)cc1OC	> 100	9.9	–	–	–	–	> 100	> 100	–	–	–	–	–	–	–	–	–	–
Nc1nc(Cl)c2ncn(Cc3ccc(C45CC6CC(CC(C6)C4)C5)c(O)c3)c2n1	13.9	6.19	13	–	26.7	21.4	4.86	18.5	3.35	1.48	–	11.8	5.64	4.07	23.2	2.38	5.14	0.578
O=c1c2cc([N+](=O)[O-])ccc2sc2ccsc12	> 100	> 100	> 100	> 100	> 100	> 100	> 100	> 100	–	–	–	–	–	–	–	–	–	–
[Cl-].[Dy+3].[O-]/N=C(\c1ccccc1)c1ccccn1.[O-]/N=C(\c1ccccc1)c1ccccn1.[O-]/N=C(\c1ccccc1)c1ccccn1	> 100	> 100	54.1	43.1	64.3	> 100	67.8	> 100	34.6	41.4	22.1	25.5	33.9	32.5	–	21.9	–	24.5
O=C(/N=N/C(=O)OCc1ccccc1)OCc1ccccc1	> 100	56.8	> 100	> 100	> 100	> 100	> 100	> 100	–	–	–	–	–	–	–	–	–	–
CCC(C)c1c(Cl)nc(Cl)nc1Cl (centres undefined)	11.9	–	> 100	3.43	58.8	> 100	–	52.8	–	–	–	–	–	–	9.1	–	–	–
CCC[CH2][Sn]([CH2]CCC)([O]C(=O)c1cccnc1SC)[O]C(=O)c1cccnc1SC	2.09	1.93	1.37	2.29	2.49	5.83	2.14	2.04	0.878	0.602	1.04	1.2	2.36	0.791	–	0.302	–	0.922
CC(C)(C)C1C=C(Sc2ccccc2)C(=O)O1 (centres undefined)	> 100	75.2	> 100	> 100	> 100	> 100	> 100	> 100	–	–	–	–	–	–	–	–	–	–
